Experiments:
Type in all cases: in vivo, rat
plasma glucose level [1] = experiment: Plasma glucose level after nasal administration of insulin to rats; settings: before administration=100
Description: Male SD strain rats (body weights 250 g, approx.) fasted for 16 hours are used in groups of at least 3 animals. Each animal is anesthetized with pentobarbital and administered nasal medication in accordance with the method described in International Journal of Pharmaceutics 7, 317 (1981). Then, 0.1 ml/kg of insulin solution is directly administered into the nasal cavity with a micropipette via the nostril.
The insulin solution used is a mixed solution of 10 U or 20 U of porcine insulin (about 0.2 mg or […]) and 0 mg to 10 mg [which correspond to 0 to 10%] of α-, β- or γ-cyclodextrin in 0.1 ml of an isotonic buffer solution (pH 7.4).
As control, insulin is intravenously administered and plasma glucose levels are determined in the manner as above.

plasma glucose level [2] = experiment: Plasma glucose level after vaginal administration of insulin to rats; settings: for Plasma glucose level (%): just before administration=100; for reduction in the area under the plasma glucose level-time curve within 6 hours after administration: mean±standard error
plasma glucose level [3] = experiment: Plasma glucose level after rectal administration of insulin solution to rats; settings: insulin 50 IU/kg, before administration=100
plasma glucose level [4] = experiment: Plasma glucose level after rectal insulin suppository in rats; settings: rectal Witepsol W-35 suppository, insulin 50 IU/kg, before administration=100
Source text: The results, which are shown in Table 11, indicate that the addition of α- or β-cyclodextrin results in an increased absorption of insulin.

Question: For insulin: porcine insulin, which “Change (%) in plasma glucose level” value (plasma glucose level [1]; intranasal, insulin 10 U/Kg, no cyclodextrin, 1 hr.) is on record?
Answer: 93.7%

Question: And the “Change (%) in plasma glucose level” value (plasma glucose level [1]; intranasal, insulin 10 U/Kg, no cyclodextrin, 2 hr.)?
Answer: 99.3%

Question: What about the “Change (%) in plasma glucose level” value (plasma glucose level [1]; intranasal, insulin 10 U/Kg, no cyclodextrin, 4 hr.) of the same substance?
Answer: 103.0%

Question: And the “Change (%) in plasma glucose level” value (plasma glucose level [1]; intranasal, insulin 10 U/Kg, α-cyclodextrin 3%, 1 hr.)?
Answer: 73.5%

Question: What about the “Change (%) in plasma glucose level” value (plasma glucose level [1]; intranasal, insulin 10 U/Kg, α-cyclodextrin 3%, 2 hr.) of the same substance?
Answer: 59.7%

Question: And the “Change (%) in plasma glucose level” value (plasma glucose level [1]; intranasal, insulin 10 U/Kg, α-cyclodextrin 3%, 4 hr.)?
Answer: 62.9%

Question: And the “Change (%) in plasma glucose level” value (plasma glucose level [1]; intranasal, insulin 10 U/Kg, α-cyclodextrin 5%, 1 hr.)?
Answer: 59.4%

Question: And the “Change (%) in plasma glucose level” value (plasma glucose level [1]; intranasal, insulin 10 U/Kg, α-cyclodextrin 5%, 2 hr.)?
Answer: 46.8%

Question: And the “Change (%) in plasma glucose level” value (plasma glucose level [1]; intranasal, insulin 10 U/Kg, α-cyclodextrin 5%, 4 hr.)?
Answer: 54.4%

Question: And the “Change (%) in plasma glucose level” value (plasma glucose level [1]; intranasal, insulin 10 U/Kg, α-cyclodextrin 10%, 1 hr.)?
Answer: 33.8%

Question: And the “Change (%) in plasma glucose level” value (plasma glucose level [1]; intranasal, insulin 10 U/Kg, α-cyclodextrin 10%, 2 hr.)?
Answer: 24.8%

Question: What about the “Change (%) in plasma glucose level” value (plasma glucose level [1]; intranasal, insulin 10 U/Kg, α-cyclodextrin 10%, 4 hr.) of the same substance?
Answer: 40.3%

Question: And the “Change (%) in plasma glucose level” value (plasma glucose level [1]; intranasal, insulin 10 U/Kg, β-cyclodextrin 10% (suspension), 1 hr.)?
Answer: 62.5%

Question: And the “Change (%) in plasma glucose level” value (plasma glucose level [1]; intranasal, insulin 10 U/Kg, β-cyclodextrin 10% (suspension), 2 hr.)?
Answer: 48.6%

Question: And the “Change (%) in plasma glucose level” value (plasma glucose level [1]; intranasal, insulin 10 U/Kg, β-cyclodextrin 10% (suspension), 4 hr.)?
Answer: 49.7%

Question: And the “Change (%) in plasma glucose level” value (plasma glucose level [1]; intranasal, insulin 10 U/Kg, γ-cyclodextrin 10%, 1 hr.)?
Answer: 80.0%

Question: What about the “Change (%) in plasma glucose level” value (plasma glucose level [1]; intranasal, insulin 10 U/Kg, γ-cyclodextrin 10%, 2 hr.) of the same substance?
Answer: 81.0%

Question: What about the “Change (%) in plasma glucose level” value (plasma glucose level [1]; intranasal, insulin 10 U/Kg, γ-cyclodextrin 10%, 4 hr.) of the same substance?
Answer: 74.2%

Question: What about the “Change (%) in plasma glucose level” value (plasma glucose level [1]; intranasal, insulin 20 U/Kg, no cyclodextrin, 1 hr.) of the same substance?
Answer: 92.4%

Question: What about the “Change (%) in plasma glucose level” value (plasma glucose level [1]; intranasal, insulin 20 U/Kg, no cyclodextrin, 2 hr.) of the same substance?
Answer: 90.6%

Question: And the “Change (%) in plasma glucose level” value (plasma glucose level [1]; intranasal, insulin 20 U/Kg, no cyclodextrin, 4 hr.)?
Answer: 99.9%

Question: And the “Change (%) in plasma glucose level” value (plasma glucose level [1]; intranasal, insulin 20 U/Kg, α-cyclodextrin 5%, 1 hr.)?
Answer: 64.3%

Question: What about the “Change (%) in plasma glucose level” value (plasma glucose level [1]; intranasal, insulin 20 U/Kg, α-cyclodextrin 5%, 2 hr.) of the same substance?
Answer: 38.4%

Question: And the “Change (%) in plasma glucose level” value (plasma glucose level [1]; intranasal, insulin 20 U/Kg, α-cyclodextrin 5%, 4 hr.)?
Answer: 47.9%

Question: And the “Change (%) in plasma glucose level” value (plasma glucose level [1]; intravenous, insulin 5 U/Kg, no cyclodextrin, 1 hr.)?
Answer: 29.6%

Question: And the “Change (%) in plasma glucose level” value (plasma glucose level [1]; intravenous, insulin 5 U/Kg, no cyclodextrin, 2 hr.)?
Answer: 31.6%

Question: And the “Change (%) in plasma glucose level” value (plasma glucose level [1]; intravenous, insulin 5 U/Kg, no cyclodextrin, 4 hr.)?
Answer: 41.7%

Question: And the “Plasma glucose level (%)” value (plasma glucose level [2]; intravaginal (5% α-CD), insulin 20 Unit/kg, 0.5 hour)?
Answer: 66.5%

Question: And the “Plasma glucose level (%)” value (plasma glucose level [2]; intravaginal (5% α-CD), insulin 20 Unit/kg, 1 hour)?
Answer: 52.7%

Question: What about the “Plasma glucose level (%)” value (plasma glucose level [2]; intravaginal (5% α-CD), insulin 20 Unit/kg, 2 hour) of the same substance?
Answer: 40.0%

Question: And the “Plasma glucose level (%)” value (plasma glucose level [2]; intravaginal (5% α-CD), insulin 20 Unit/kg, 3 hour)?
Answer: 33.7%

Question: And the “Plasma glucose level (%)” value (plasma glucose level [2]; intravaginal (5% α-CD), insulin 20 Unit/kg, 4 hour)?
Answer: 31.4%

Question: And the “Plasma glucose level (%)” value (plasma glucose level [2]; intravaginal (5% α-CD), insulin 20 Unit/kg, 6 hour)?
Answer: 41.5%

Question: What about the “Plasma glucose level (%)” value (plasma glucose level [2]; intravaginal (physiological saline), insulin 20 Unit/kg, no cyclodextrin, 0.5 hour) of the same substance?
Answer: 80.7%

Question: And the “Plasma glucose level (%)” value (plasma glucose level [2]; intravaginal (physiological saline), insulin 20 Unit/kg, no cyclodextrin, 1 hour)?
Answer: 75.8%

Question: What about the “Plasma glucose level (%)” value (plasma glucose level [2]; intravaginal (physiological saline), insulin 20 Unit/kg, no cyclodextrin, 2 hour) of the same substance?
Answer: 77.2%

Question: What about the “Plasma glucose level (%)” value (plasma glucose level [2]; intravaginal (physiological saline), insulin 20 Unit/kg, no cyclodextrin, 3 hour) of the same substance?
Answer: 74.2%

Question: And the “Plasma glucose level (%)” value (plasma glucose level [2]; intravaginal (physiological saline), insulin 20 Unit/kg, no cyclodextrin, 4 hour)?
Answer: 66.9%

Question: And the “Plasma glucose level (%)” value (plasma glucose level [2]; intravaginal (physiological saline), insulin 20 Unit/kg, no cyclodextrin, 6 hour)?
Answer: 67.8%

Question: And the “pharmacological effect versus control vaginal administration group” value (plasma glucose level [2]; intravaginal, insulin 20 units/kg, 5% α-cyclodextrin)?
Answer: almost doubled

Question: And the “reduction in the area under the plasma glucose level-time curve within 6 hours after administration” value (plasma glucose level [2]; intravaginal, insulin 20 units/kg, 5% α-cyclodextrin (invention group))?
Answer: 339.9±11.2 %×hour

Question: And the “reduction in the area under the plasma glucose level-time curve within 6 hours after administration” value (plasma glucose level [2]; intravaginal, insulin 20 units/kg, no cyclodextrin (control group))?
Answer: 158.2±29.6 %×hour

Question: And the “Plasma glucose level (%)” value (plasma glucose level [2]; subcutaneous, insulin 5 Unit/kg, no cyclodextrin, 0.5 hour)?
Answer: 67.0%

Question: And the “Plasma glucose level (%)” value (plasma glucose level [2]; subcutaneous, insulin 5 Unit/kg, no cyclodextrin, 1 hour)?
Answer: 54.7%

Question: What about the “Plasma glucose level (%)” value (plasma glucose level [2]; subcutaneous, insulin 5 Unit/kg, no cyclodextrin, 2 hour) of the same substance?
Answer: 42.2%

Question: What about the “Plasma glucose level (%)” value (plasma glucose level [2]; subcutaneous, insulin 5 Unit/kg, no cyclodextrin, 3 hour) of the same substance?
Answer: 35.1%

Question: What about the “Plasma glucose level (%)” value (plasma glucose level [2]; subcutaneous, insulin 5 Unit/kg, no cyclodextrin, 4 hour) of the same substance?
Answer: 37.5%

Question: And the “Plasma glucose level (%)” value (plasma glucose level [2]; subcutaneous, insulin 5 Unit/kg, no cyclodextrin, 6 hour)?
Answer: 74.1%

Question: What about the “Change (%) in plasma glucose level” value (plasma glucose level [3]; 5% (w/v) α-cyclodextrin, 0.5 hr.) of the same substance?
Answer: 92.9%

Question: What about the “Change (%) in plasma glucose level” value (plasma glucose level [3]; 5% (w/v) α-cyclodextrin, 1 hr.) of the same substance?
Answer: 39.1%

Question: What about the “Change (%) in plasma glucose level” value (plasma glucose level [3]; 5% (w/v) α-cyclodextrin, 1.5 hr.) of the same substance?
Answer: 39.6%

Question: What about the “Change (%) in plasma glucose level” value (plasma glucose level [3]; 5% (w/v) α-cyclodextrin, 2 hr.) of the same substance?
Answer: 69.6%

Question: What about the “Change (%) in plasma glucose level” value (plasma glucose level [3]; 5% (w/v) β-cyclodextrin, 0.5 hr.) of the same substance?
Answer: 94.3%

Question: And the “Change (%) in plasma glucose level” value (plasma glucose level [3]; 5% (w/v) β-cyclodextrin, 1 hr.)?
Answer: 70.1%

Question: And the “Change (%) in plasma glucose level” value (plasma glucose level [3]; 5% (w/v) β-cyclodextrin, 1.5 hr.)?
Answer: 76.3%

Question: And the “Change (%) in plasma glucose level” value (plasma glucose level [3]; 5% (w/v) β-cyclodextrin, 2 hr.)?
Answer: 90.1%

Question: And the “Change (%) in plasma glucose level” value (plasma glucose level [3]; 5% (w/v) γ-cyclodextrin, 0.5 hr.)?
Answer: 94.8%

Question: What about the “Change (%) in plasma glucose level” value (plasma glucose level [3]; 5% (w/v) γ-cyclodextrin, 1 hr.) of the same substance?
Answer: 79.0%

Question: And the “Change (%) in plasma glucose level” value (plasma glucose level [3]; 5% (w/v) γ-cyclodextrin, 1.5 hr.)?
Answer: 81.3%

Question: And the “Change (%) in plasma glucose level” value (plasma glucose level [3]; 5% (w/v) γ-cyclodextrin, 2 hr.)?
Answer: 93.0%

Question: And the “Change (%) in plasma glucose level” value (plasma glucose level [3]; no cyclodextrin, 0.5 hr.)?
Answer: 102.2%

Question: And the “Change (%) in plasma glucose level” value (plasma glucose level [3]; no cyclodextrin, 1 hr.)?
Answer: 86.0%

Question: And the “Change (%) in plasma glucose level” value (plasma glucose level [3]; no cyclodextrin, 1.5 hr.)?
Answer: 95.2%

Question: What about the “Change (%) in plasma glucose level” value (plasma glucose level [3]; no cyclodextrin, 2 hr.) of the same substance?
Answer: 121.9%

Question: What about the “Change (%) in plasma glucose level” value (plasma glucose level [4]; 5% (w/w) α-cyclodextrin, 0.5 hr.) of the same substance?
Answer: 93.1%

Question: What about the “Change (%) in plasma glucose level” value (plasma glucose level [4]; 5% (w/w) α-cyclodextrin, 1 hr.) of the same substance?
Answer: 61.1%

Question: And the “Change (%) in plasma glucose level” value (plasma glucose level [4]; 5% (w/w) α-cyclodextrin, 1.5 hr.)?
Answer: 63.5%

Question: What about the “Change (%) in plasma glucose level” value (plasma glucose level [4]; 5% (w/w) α-cyclodextrin, 2 hr.) of the same substance?
Answer: 86.1%

Question: What about the “Change (%) in plasma glucose level” value (plasma glucose level [4]; 5% (w/w) α-cyclodextrin, 3 hr.) of the same substance?
Answer: 93.4%

Question: What about the “Change (%) in plasma glucose level” value (plasma glucose level [4]; 5% (w/w) β-cyclodextrin, 0.5 hr.) of the same substance?
Answer: 87.1%

Question: What about the “Change (%) in plasma glucose level” value (plasma glucose level [4]; 5% (w/w) β-cyclodextrin, 1 hr.) of the same substance?
Answer: 81.5%

Question: And the “Change (%) in plasma glucose level” value (plasma glucose level [4]; 5% (w/w) β-cyclodextrin, 1.5 hr.)?
Answer: 80.1%

Question: What about the “Change (%) in plasma glucose level” value (plasma glucose level [4]; 5% (w/w) β-cyclodextrin, 2 hr.) of the same substance?
Answer: 92.5%

Question: What about the “Change (%) in plasma glucose level” value (plasma glucose level [4]; 5% (w/w) β-cyclodextrin, 3 hr.) of the same substance?
Answer: 100.4%

Question: And the “Change (%) in plasma glucose level” value (plasma glucose level [4]; no cyclodextrin, 0.5 hr.)?
Answer: 98.1%

Question: And the “Change (%) in plasma glucose level” value (plasma glucose level [4]; no cyclodextrin, 1 hr.)?
Answer: 94.1%

Question: What about the “Change (%) in plasma glucose level” value (plasma glucose level [4]; no cyclodextrin, 1.5 hr.) of the same substance?
Answer: 97.4%

Question: And the “Change (%) in plasma glucose level” value (plasma glucose level [4]; no cyclodextrin, 2 hr.)?
Answer: 98.1%

Question: What about the “Change (%) in plasma glucose level” value (plasma glucose level [4]; no cyclodextrin, 3 hr.) of the same substance?
Answer: 102.5%
